According to patent US9493464B2, “Wee1 degradation inhibitors” (The Scripps Research Institute, priority 2012, dated 2016):
Several values for one entry are separate records, joined by “and”; a condition that tells them apart may be missing. Identical values can stand only once. Entries after “also recorded” stand apart in the source; their conditions may differ. Like-named read-outs stand apart in the source and are kept apart here.

Tests used:
[1] = system: cerebellar granule cell progenitors (GCPs); assay: In vitro proliferation of cerebellar granule cell progenitors (3H-thymidine uptake); type: cell-based, mouse; conditions: 24 hours; result in words
Description: GCPs were incubated with DMSO, 5 μM D4476 (known CK1δ and CK1ε inhibitor), or 50 μM D4476 and processed for ^3H-thymidine incorporation after 24 hours. A representative experiment performed in triplicate is shown.

HeLa cells [2] = assay: Cell viability, ATP content (Cell-Titer Glo); type: cell-based; conditions: 24 hours, result in words
Source text: Error bars represent the standard deviation of three separate experiments.

HeLa cells [3] = assay: PI-FACS cell cycle analysis; type: cell-based; conditions: 24 hours, result in words
Source text: FIG. 11 illustrates inhibition of CK1δ and CK1ε can induce an S/G2/M phase arrest.

[4] = system: GCPs in organotypic cerebellar slices; assay: Organotypic cerebellar slice GCP migration assay; type: cell-based, mice; conditions: 500 nM, 48 hours; result in words
Source text: Cerebella from P7 mice were isolated and sliced using a vibratome. Subsequently, slices were electroporated with venus-GFP to visualize GCPs. […] Many GCPs migrate to the Purkinje cell layer in DMSO treated cells, but fewer do so in SR-653234 or SR-1277 treated slices. […] Phospho-Y15 Cdc2 is a measure of Wee1 activity. Skp-1 is used as a loading control.

HEK-SW cells = assay: Amyloid β 1-42 production (AlphaLISA); type: cell-based; conditions: 1 μM; supernatant at 48 hours post plating; result in words
Description: HEK-SW cells, which artificially overexpress mutated APP (K670N/M671L), the so-called Swedish mutation, were cultured on D-MEM supplemented with 10% FBS. HEK-SW cells were kindly provided by laboratory of Dr. Dennis Selkoe. HEK-SW cells were plated in 96 well plates (10,000 cells/well) and at 24 hours post plating replaced media and started treatments. […] DAPT, N [(3,5-Difluorophenyl)acetyl]-L-alanyl-2-phenyl]glycine-1,1-dimethylethyl ester, is a known inhibitor of γ-secretase purchased from TOCRIS Bioscience (Ellisville, Mo., USA). Supernatant of cells were collected at 48 hours post plating and concentration of Amyloid β 1-42 (Aβ 1-42) measured by AlphaLISA method (PerkinElmer, Waltham, Mass., USA) following instructions from the company.

CK1δ = CK1δ (Homo sapiens, UniProt P48730); assay: In vitro kinase assay, CK1d, 32P-ATP filter binding (Reaction Biology Corporation); type: biochemical; conditions: 10 μM ATP; read-out: CK1δ IC50
Chain of CK1δ (P48730 whole entry): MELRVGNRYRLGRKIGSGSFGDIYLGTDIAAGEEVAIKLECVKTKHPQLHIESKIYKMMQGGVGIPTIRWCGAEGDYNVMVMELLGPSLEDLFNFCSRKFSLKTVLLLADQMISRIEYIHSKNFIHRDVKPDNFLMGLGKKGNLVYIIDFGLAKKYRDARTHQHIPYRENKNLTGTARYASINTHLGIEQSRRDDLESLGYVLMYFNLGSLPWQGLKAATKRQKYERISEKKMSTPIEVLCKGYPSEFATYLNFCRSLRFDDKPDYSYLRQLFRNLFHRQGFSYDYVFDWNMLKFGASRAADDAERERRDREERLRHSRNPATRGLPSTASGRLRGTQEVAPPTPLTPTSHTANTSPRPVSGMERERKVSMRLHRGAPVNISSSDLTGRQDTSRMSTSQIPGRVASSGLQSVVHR
Description: Compounds were tested in 10-dose IC50 mode with 3-fold serial dilution starting at 50 μM. […] Reactions were carried out at 10 μM ATP. Average and standard deviations of reactions carried out in triplicate are shown.
In vitro kinase assay to detect CK1 or FLT3 activity: CK1 and FLT3 assays as well as complete kinase profile of 296 kinases was performed by Reaction Biology Corporation. For FLT3 20 μM final Abltide was used, sequence: [[…]]. For CK1 (all isoforms) 20 μM CK1 tide was used, sequence: [KRRRAL[pS]VASLPGL] in a standard kinase assay with ^32P-ATP and purified kinase. Incorporation of ^32P-ATP into the peptide was measured after a filter-binding assay. In-house CK1d inhibition assays were performed using a standard homogenous time-resolved fluorescence resonance energy transfer (TR-FRET) format in 50 mM Hepes, pH 7.0, 2.5 mM MgCl2, 0.1 mg/ml bovine serum albumin, 1 mM DL-dithiothreitol, 0.01% Triton X-100 (all from Sigma-Aldrich). Briefly, the CK1δ substrate (DEKTDDE, containing CK1 consensus sequence; 4 μL of a 500 nM stock solution) is labeled with a small Ulight acceptor dye (PerkinElmer). In the presence of 10 μL of 10 nM CK1δ, the Ulight peptide is phosphorylated at a single amino acid that is specifically recognized by a europium chelate (Eu)-labeled phosphospecific antibody. Assays were performed in the presence of 2 μL of compound at different (measured) concentrations, and reactions were stopped by adding 10 μL of 4 nM Eu-anti-p-Topo-IIa (PerkinElmer) in Lance Detection Buffer (Perkin Elmer). Upon excitation of the Eu-labeled antibody, energy is transferred to the acceptor dye resulting in the emission of detected light at 665 nm.

K328M-Wee1-luciferase = assay: Wee1-luciferase assay (stabilization of K328M-Wee1-luciferase); type: cell-based; conditions: for EC50: read-out: EC50 for stabilization of K328M-Wee1-luciferase
Source text: Steady-state level of K328M-Wee1-Luciferase (K328M-Wee1-Luc) was divided by Luciferase level (Luc) and plotted.
Similar assays have previously been described; PubChem AID 1807.

RXF393 (renal) = assay: NCI Dose Growth Inhibition assay (NCI-60); type: cell-based; conditions: Homo sapiens, RXF 393
Description: (§1) Table 3, below, illustrates the activity of some of the compounds of the present invention in the National Cancer Institute's Dose Growth Inhibition assay against several human tumor cell lines selected from the NCI-60 panel.
(§2) NCI-60 Cancer Cell Line Screening was performed by the National Cancer Institute, using the procedures described on their website (http://dtp.nci.nih.gov/branches/btb/ivelsp.html)

A498 (renal) = assay: NCI Dose Growth Inhibition assay (NCI-60); type: cell-based; conditions: Homo sapiens
Description: as §1, §2

UACC-62 (melanoma) = assay: NCI Dose Growth Inhibition assay (NCI-60); type: cell-based; conditions: Homo sapiens
Description: as §1, §2

COLO 205 (colon) = assay: NCI Dose Growth Inhibition assay (NCI-60); type: cell-based; conditions: Homo sapiens
Description: as §1, §2

SNB-75 (CNS) = assay: NCI Dose Growth Inhibition assay (NCI-60); type: cell-based; conditions: Homo sapiens
Description: as §1, §2

MDA-MB-468 (breast) = assay: NCI Dose Growth Inhibition assay (NCI-60); type: cell-based; conditions: Homo sapiens
Description: as §1, §2

`O=[N+]([O-])c1cccc2[nH]c(CNc3nc(N4CCOCC4)nc4c3ncn4-c3ccsc3)nc12` [SR-1277] was tested, and the “inhibition of GCP proliferation (3H-thymidine)” value [1] was “robust inhibition”, the cell viability (HeLa cells [2]) was “not affected” and the cell cycle arrest (HeLa cells [3]) was “induced an S/G2/M arrest”. The “GCP migration to the Purkinje cell layer” value [4] was “fewer do so”, the Aβ1-42 production (HEK-SW cells) was “inhibit Aβ1-42 production” and the IC50 (CK1δ) was 49 nM. For the same molecule, the “% Inhibition, Wee1 Degradation” value (K328M-Wee1-luciferase; 0.25 µM) was 100.0%, the EC50 (K328M-Wee1-luciferase) was 40 nM and the GI50 (RXF393 (renal)) was less than 10 nM. The GI50 (A498 (renal); A498) was 17 nM, the GI50 (UACC-62 (melanoma); UACC-62) was 14 nM and the GI50 (COLO 205 (colon); COLO 205) was 15 nM. For the same molecule, the GI50 (SNB-75 (CNS); SNB-75) was less than 10 nM and the GI50 (MDA-MB-468 (breast); MDA-MB-468) was less than 10 nM.

In the case of `c1ccc2[nH]c(CNc3nc(N4CCOCC4)nc4c3ncn4-c3ccsc3)nc2c1` [SR-653234], the “inhibition of GCP proliferation (3H-thymidine)” value [1] is reported as “robust inhibition”, the cell viability (HeLa cells [2]) is reported as “without affecting cell viability; also recorded: not affected” and the cell cycle arrest (HeLa cells [3]) is reported as “induced an S/G2/M arrest”. For the same molecule, the “GCP migration to the Purkinje cell layer” value [4] was “fewer do so”, the Aβ1-42 production (HEK-SW cells) was “inhibit Aβ1-42 production” and the IC50 (CK1δ) was 161 nM and 540 nM. For the same molecule, the EC50 (K328M-Wee1-luciferase; HeLa cells) was 624 nM, the “stabilization of K328M-Wee1-luciferase” value (K328M-Wee1-luciferase; HeLa cells, result in words) was “stabilizes Wee1-luciferase” and the “% Inhibition, Wee1 Degradation” value (K328M-Wee1-luciferase; at 250 nM, reported relative to SR-1277 = 100%) was 56.8%. The GI50 (RXF393 (renal); RXF393 (renal), read-out: GI50) was 26 nM, the GI50 (A498 (renal); A498 (renal), read-out: GI50) was 72 nM and the GI50 (UACC-62 (melanoma); UACC-62 (melanoma), read-out: GI50) was 68 nM. The GI50 (COLO 205 (colon); COLO 205 (colon), read-out: GI50) was 26 nM, the GI50 (SNB-75 (CNS); SNB-75 (CNS), read-out: GI50) was 25 nM and the GI50 (MDA-MB-468 (breast); MDA-MB-468 (breast), read-out: GI50) was 16 nM.
